From patent US10399940B2, “Substituted pyrrolidines and methods of use” (AbbVie S.à.r.l., priority 2016, dated 2019)
Like-named read-outs stand apart in the source and are kept apart here.

Biological target: T1, F508delCFTR (Homo sapiens, UniProt P13569, DEL508-508)
T1 construct: expressed in transfected cells; host or cells: CFBE41o- (human lung derived epithelial cell line), doxycycline-inducible expression
Assay: Cell Surface Expression-Horse Radish Peroxidase (CSE-HRP) assay
Type: cell-based
Conditions: CFBE41o-F508delCFTR-HRP cells; for Maximum % activity (with co-corrector): with co-corrector (2 μM); for Maximum % activity (with co-corrector) / Maximum % activity (without co-corrector): normalized to on-plate positive control, highest concentration 20 μM
Method in brief: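 Surface F508delCFTR-HRP was read by luminol luminescence after 18–24 h compound exposure at 33 °C, without or with 2 μM co-corrector. Doses were eight 3-fold steps from 20 μM, in doxycycline-induced (0.5 μg/mL, 72 h) CFBE41o- cells. % activity was scaled to the on-plate 2 μM positive control minus DMSO; EC50 came from a variable-slope sigmoid fit.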

[1] = test compound without co-corrector, 18-24 hours at 33° C., read-out: EC50 (without co-corrector)
[2] = with co-corrector (2 μM of 3-[(2R,4R)-4-({[1-(2,2-difluoro-1,3-benzodioxol-5-yl)cyclopropyl]carbonyl}amino)-7-methoxy-3,4-dihydro-2H-chromen-2-yl]benzoic acid), read-out: EC50 (with co-corrector)

T1 sequence (P13569 with tags, fused parts or gaps DEL508-508): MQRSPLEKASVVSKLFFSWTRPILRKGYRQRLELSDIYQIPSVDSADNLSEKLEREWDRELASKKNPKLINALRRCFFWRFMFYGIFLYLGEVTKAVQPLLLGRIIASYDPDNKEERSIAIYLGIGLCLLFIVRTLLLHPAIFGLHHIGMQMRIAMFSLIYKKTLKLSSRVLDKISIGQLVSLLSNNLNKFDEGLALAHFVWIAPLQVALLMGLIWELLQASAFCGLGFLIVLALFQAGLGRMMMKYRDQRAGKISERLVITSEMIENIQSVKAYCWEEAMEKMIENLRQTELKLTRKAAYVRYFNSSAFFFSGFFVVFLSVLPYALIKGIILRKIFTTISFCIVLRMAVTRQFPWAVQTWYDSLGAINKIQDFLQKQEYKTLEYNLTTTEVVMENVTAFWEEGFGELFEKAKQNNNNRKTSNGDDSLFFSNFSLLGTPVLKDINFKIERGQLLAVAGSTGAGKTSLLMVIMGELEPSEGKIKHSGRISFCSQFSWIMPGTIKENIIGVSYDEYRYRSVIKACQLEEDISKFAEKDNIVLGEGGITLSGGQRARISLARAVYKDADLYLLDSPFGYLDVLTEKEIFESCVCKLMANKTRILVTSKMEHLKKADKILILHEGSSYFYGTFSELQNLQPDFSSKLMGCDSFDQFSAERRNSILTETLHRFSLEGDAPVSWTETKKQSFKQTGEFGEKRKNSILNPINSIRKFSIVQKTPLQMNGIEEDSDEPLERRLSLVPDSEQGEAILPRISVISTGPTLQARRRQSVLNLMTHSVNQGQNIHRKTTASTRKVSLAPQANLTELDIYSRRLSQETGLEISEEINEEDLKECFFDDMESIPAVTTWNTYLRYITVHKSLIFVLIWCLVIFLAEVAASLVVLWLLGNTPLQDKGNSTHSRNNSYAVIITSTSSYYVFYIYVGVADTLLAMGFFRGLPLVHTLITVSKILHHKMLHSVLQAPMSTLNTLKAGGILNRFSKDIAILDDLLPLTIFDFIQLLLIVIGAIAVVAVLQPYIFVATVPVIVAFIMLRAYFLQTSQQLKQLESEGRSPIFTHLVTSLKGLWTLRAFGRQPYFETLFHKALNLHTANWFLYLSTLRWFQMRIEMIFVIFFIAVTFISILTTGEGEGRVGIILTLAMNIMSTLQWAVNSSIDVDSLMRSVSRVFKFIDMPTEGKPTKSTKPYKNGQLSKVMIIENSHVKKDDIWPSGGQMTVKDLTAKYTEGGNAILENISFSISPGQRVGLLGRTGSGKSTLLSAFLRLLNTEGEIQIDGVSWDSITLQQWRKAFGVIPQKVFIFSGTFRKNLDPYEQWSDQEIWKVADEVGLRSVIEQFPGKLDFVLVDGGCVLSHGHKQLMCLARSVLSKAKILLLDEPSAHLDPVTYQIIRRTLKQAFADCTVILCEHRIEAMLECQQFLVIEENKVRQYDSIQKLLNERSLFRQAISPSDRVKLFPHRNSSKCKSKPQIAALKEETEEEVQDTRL

Structure (SMILES): COc1ncc(C(F)(F)F)cc1CO[C@H]1[C@H](C(C)(C)C)[C@@H](C(=O)O)N(C(=O)[C@@H]2CCCCO2)[C@H]1c1ccccc1-c1ccccc1 [Example 180, (2S,3R,4S,5S)-5-([1,1′-biphenyl]-2-yl)-3-tert-butyl-4-{[2-methoxy-5-(trifluoromethyl)pyridin-3-yl]methoxy}-1-[(2S)-oxane-2-carbonyl]pyrrolidine-2-carboxylic acid]
- EC50 [1]: < 1000 nM
- EC50 [2]: < 1000 nM
- Maximum % activity (with co-corrector): +++ (≥350)
- Maximum % activity (without co-corrector): +++ (≥200)

Structure (SMILES): COc1ncc(C(F)(F)F)cc1CO[C@H]1[C@H](C(C)(C)C)[C@@H](C(=O)O)N(C(=O)[C@@H]2CCCCO2)[C@H]1c1ccccc1-c1ccc(=O)n(C)c1 [Example 181, (2S,3R,4S,5S)-3-tert-butyl-4-{[2-methoxy-5-(trifluoromethyl)pyridin-3-yl]methoxy}-5-[2-(1-methyl-6-oxo-1,6-dihydropyridin-3-yl)phenyl]-1-[(2S)-oxane-2-carbonyl]pyrrolidine-2-carboxylic acid]
- EC50 [1]: > 10000 nM
- EC50 [2]: 1000 to 10000 nM
- Maximum % activity (with co-corrector): ++ (≥150 and <350)
- Maximum % activity (without co-corrector): + (<100)

Structure (SMILES): COc1ncc(C2CCC2)cc1CO[C@H]1[C@H](C(C)(C)C)[C@@H](C(=O)O)N(C(=O)C2CCCCC2)[C@H]1c1ccccc1C1CC1 [Example 182, (2S,3R,4S,5S)-3-tert-butyl-4-[(5-cyclobutyl-2-methoxypyridin-3-yl)methoxy]-1-(cyclohexanecarbonyl)-5-(2-cyclopropylphenyl)pyrrolidine-2-carboxylic acid]
- EC50 [1]: 1000 to 10000 nM
- EC50 [2]: < 1000 nM
- Maximum % activity (with co-corrector): +++ (≥350)
- Maximum % activity (without co-corrector): +++ (≥200)

Structure (SMILES): COc1ncc(C2CCC2)cc1CO[C@H]1[C@H](C(C)(C)C)[C@@H](C(=O)O)N(C(=O)C2CCCCC2)[C@H]1c1ccccc1Br [Example 183, (2S,3R,4S,5S)-5-(2-bromophenyl)-3-tert-butyl-4-[(5-cyclobutyl-2-methoxypyridin-3-yl)methoxy]-1-(cyclohexanecarbonyl)pyrrolidine-2-carboxylic acid]
- EC50 [1]: 1000 to 10000 nM
- EC50 [2]: 1000 to 10000 nM
- Maximum % activity (with co-corrector): +++ (≥350)
- Maximum % activity (without co-corrector): ++ (≥100 and <200)

Structure (SMILES): CCc1ccccc1[C@H]1[C@@H](OCc2ccc(C(F)(F)F)cc2OC)[C@H](C(C)(C)C)[C@@H](C(=O)O)N1C(=O)[C@@H]1CCCCO1 [Example 184, (2S,3R,4S,5S)-3-tert-butyl-5-(2-ethylphenyl)-4-{[2-methoxy-4-(trifluoromethyl)phenyl]methoxy}-1-[(2S)-oxane-2-carbonyl]pyrrolidine-2-carboxylic acid]
- EC50 [1]: < 1000 nM
- EC50 [2]: < 1000 nM
- Maximum % activity (with co-corrector): +++ (≥350)
- Maximum % activity (without co-corrector): +++ (≥200)

Structure (SMILES): CCc1ccccc1[C@H]1[C@@H](OCc2cc(C3CCC3)cnc2OC)[C@H](C(C)(C)C)[C@@H](C(=O)O)N1C(=O)[C@@H]1CCCCO1 [Example 185, (2S,3R,4S,5S)-3-tert-butyl-4-[(5-cyclobutyl-2-methoxypyridin-3-yl)methoxy]-5-(2-ethylphenyl)-1-[(2S)-oxane-2-carbonyl]pyrrolidine-2-carboxylic acid]
- EC50 [1]: 1000 to 10000 nM
- EC50 [2]: < 1000 nM
- Maximum % activity (with co-corrector): +++ (≥350)
- Maximum % activity (without co-corrector): +++ (≥200)

Structure (SMILES): COc1ccc(C(C)(C)C#N)cc1CO[C@H]1[C@H](C(C)(C)C)[C@@H](C(=O)O)N(C(=O)[C@@H]2CCCCO2)[C@H]1c1ccccc1C [Example 187, (2S,3R,4S,5S)-3-tert-butyl-4-{[5-(2-cyanopropan-2-yl)-2-methoxyphenyl]methoxy}-5-(2-methylphenyl)-1-[(2S)-oxane-2-carbonyl]pyrrolidine-2-carboxylic acid]
- EC50 [1]: 1000 to 10000 nM
- EC50 [2]: < 1000 nM
- Maximum % activity (with co-corrector): +++ (≥350)
- Maximum % activity (without co-corrector): +++ (≥200)

Structure (SMILES): COc1ccc(C(C)(C)C)cc1CO[C@H]1[C@H](C(C)(C)C)[C@@H](C(=O)O)N(C(=O)[C@@H]2CCCCO2)[C@H]1c1ccccc1C [Example 188, (2S,3R,4S,5S)-3-tert-butyl-4-[(5-tert-butyl-2-methoxyphenyl)methoxy]-5-(2-methylphenyl)-1-[(2S)-oxane-2-carbonyl]pyrrolidine-2-carboxylic acid]
- EC50 [1]: < 1000 nM
- EC50 [2]: < 1000 nM
- Maximum % activity (with co-corrector): +++ (≥350)
- Maximum % activity (without co-corrector): +++ (≥200)

Structure (SMILES): COc1nc2ccccc2cc1CO[C@H]1[C@H](C(C)(C)C)[C@@H](C(=O)O)N(C(=O)[C@@H]2CCCCO2)[C@H]1c1ccccc1C [Example 189, (2S,3R,4S,5S)-3-tert-butyl-4-[(2-methoxyquinolin-3-yl)methoxy]-5-(2-methylphenyl)-1-[(2S)-oxane-2-carbonyl]pyrrolidine-2-carboxylic acid]
- EC50 [1]: 1000 to 10000 nM
- EC50 [2]: 1000 to 10000 nM
- Maximum % activity (with co-corrector): +++ (≥350)
- Maximum % activity (without co-corrector): +++ (≥200)

Structure (SMILES): COc1ncc(C(F)(F)F)cc1CO[C@H]1[C@H](C(C)(C)C)[C@@H](C(=O)O)N(C(=O)[C@@H]2CCCCO2)[C@H]1c1ccccc1-c1ccc(F)cc1 [Example 190, (2S,3R,4S,5S)-3-tert-butyl-5-(4′-fluoro[1,1′-biphenyl]-2-yl)-4-{[2-methoxy-5-(trifluoromethyl)pyridin-3-yl]methoxy}-1-[(2S)-oxane-2-carbonyl]pyrrolidine-2-carboxylic acid]
- EC50 [1]: 1000 to 10000 nM
- EC50 [2]: 1000 to 10000 nM
- Maximum % activity (with co-corrector): +++ (≥350)
- Maximum % activity (without co-corrector): +++ (≥200)

Structure (SMILES): COc1ncc(C(F)(F)F)cc1CO[C@H]1[C@H](C(C)(C)C)[C@@H](C(=O)O)N(C(=O)[C@@H]2CCCCO2)[C@H]1c1ccccc1-c1cccc(Cl)c1 [Example 191, (2S,3R,4S,5S)-3-tert-butyl-5-(3′-chloro[1,1′-biphenyl]-2-yl)-4-{[2-methoxy-5-(trifluoromethyl)pyridin-3-yl]methoxy}-1-[(2S)-oxane-2-carbonyl]pyrrolidine-2-carboxylic acid]
- EC50 [1]: 1000 to 10000 nM
- EC50 [2]: 1000 to 10000 nM
- Maximum % activity (with co-corrector): +++ (≥350)
- Maximum % activity (without co-corrector): +++ (≥200)

Structure (SMILES): COc1ncc(C(F)(F)F)cc1CO[C@H]1[C@H](C(C)(C)C)[C@@H](C(=O)O)N(C(=O)[C@@H]2CCCCO2)[C@H]1c1ccccc1C1=CCN(C)CC1 [Example 192, (2S,3R,4S,5S)-3-tert-butyl-4-{[2-methoxy-5-(trifluoromethyl)pyridin-3-yl]methoxy}-5-[2-(1-methyl-1,2,3,6-tetrahydropyridin-4-yl)phenyl]-1-[(2S)-oxane-2-carbonyl]pyrrolidine-2-carboxylic acid]
- EC50 [1]: 1000 to 10000 nM
- EC50 [2]: 1000 to 10000 nM
- Maximum % activity (with co-corrector): ++ (≥150 and <350)
- Maximum % activity (without co-corrector): + (<100)

Structure (SMILES): COc1ncc(C(F)(F)F)cc1CO[C@H]1[C@H](C(C)(C)C)[C@@H](C(=O)O)N(C(=O)[C@@H]2CCCCO2)[C@H]1c1ccccc1-c1cnn(C)c1 [Example 193, (2S,3R,4S,5S)-3-tert-butyl-4-{[2-methoxy-5-(trifluoromethyl)pyridin-3-yl]methoxy}-5-[2-(1-methyl-1H-pyrazol-4-yl)phenyl]-1-[(2S)-oxane-2-carbonyl]pyrrolidine-2-carboxylic acid]
- EC50 [1]: 1000 to 10000 nM
- EC50 [2]: 1000 to 10000 nM
- Maximum % activity (with co-corrector): +++ (≥350)
- Maximum % activity (without co-corrector): ++ (≥100 and <200)
